# Test results published in patent publication US11345702B1 (Myoforte Therapeutics, Inc., priority 2020, dated 2022).
# How the values were obtained:
# [1] = Liver microsome stability assay (MLM); format: in vitro ADME; conditions: mouse liver microsomes
# Experimental: A microsomal mixture (microsomes and Kphos buffer) was prepared at a concentration of 1.428 mg/mL in 2 mL tubes. To this microsomal mixture 1.6 μL (1 mM) of test compound and positive control were spiked; from this mixture, 70 μL was transferred to 96 well plate and pre-incubated at 37° C. for 5 min. After pre-incubation, the zero minute time point reaction was stopped using 100 μL of ice-cold acetonitrile containing internal standard and […] (3.33 mM in Kphos buffer) was added. The 45 minute time point reaction was initiated by addition of 30 μL of NADPH (3.33 mM in Kphos buffer) and incubated at 37° C. for 15 and 45 min. Reactions without NADPH and buffer controls (minus NADPH) at 0, 15, and 45 minutes were also incubated to rule out non-NADPH metabolism or chemical instability in the incubation buffer. Incubation reactions were stopped with 100 μL of ice-cold acetonitrile containing internal standard. The plates were centrifuged at 4000 RPM for 15 min and 100 μL aliquots were submitted for analysis by LC-MS/MS. (Verapamil in human liver microsomes (HLM) and rat liver microsomes (RLM) was used as positive controls. Imipramine in mouse liver microsomes (MLM) was used as a positive control.) Samples were monitored for parent compound disappearance in MRM mode (multiple reaction monitoring) using LC-MS/MS. The peak area ratios of analyte versus internal standard were used to calculate the % remaining at the end of 45 minutes in the presence of NADPH.
# [2] = biological target: 15-PGDH/HPGD (Homo sapiens (Human), UniProt P15428); assay: hPGDH inhibitor screening biochemical assay; conditions: read-out: hPGDH: Average IC50
# Sequence of 15-PGDH/HPGD (P15428 whole entry): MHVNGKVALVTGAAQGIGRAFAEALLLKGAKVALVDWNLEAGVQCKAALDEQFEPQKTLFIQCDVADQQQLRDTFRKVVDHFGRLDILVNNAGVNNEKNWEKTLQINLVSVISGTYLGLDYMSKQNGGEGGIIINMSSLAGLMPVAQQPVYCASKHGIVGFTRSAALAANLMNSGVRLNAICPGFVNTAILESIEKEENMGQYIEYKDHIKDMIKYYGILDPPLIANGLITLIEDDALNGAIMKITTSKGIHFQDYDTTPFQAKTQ
# How it was run: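 Ten-point dose-response inhibition of 15-PGDH measured by fluorescence (340/485 nm) after 10 min at room temperature with PGE2 (15 μM) and NAD+ (0.25 mM), following 10 min enzyme (10 nM)–compound pre-incubation at 37 °C. Buffer: 50 mM Tris-HCl pH 7.5, 0.01% Tween 20. Percent inhibition relative to 1% DMSO; four-parameter IC50.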
Structure (SMILES),MLM + NADPH (% remaining at 45 min) [1] [%],IC50 [2] [nM]
O=C(NC(CO)CO)c1ccc(-n2ccc3cc(C(=O)N4CCC(F)(F)CC4)cnc32)cc1 [MF-DH-412],97,< 100
O=C(NCCO)c1ccc(-n2ccc3cc(C(=O)N4CCC(F)(F)CC4)cnc32)cc1 [MF-DH-413],94,< 100
"CS(=O)(=O)NC(=O)c1ccc(-n2ccc3cc(C(=O)N4CCC(F)(F)CC4)cnc32)cc1 [MF-DH-428, 4-(5-(4,4-difluoropiperidine-1-carbonyl)-1H-pyrrolo[2,3-b]pyridin-1-yl)-N-(methylsulfonyl)benzamide]",97,< 100
O=C(NC1(C(=O)O)CC1)c1ccc(-n2ccc3cc(C(=O)N4CCC(F)(F)CC4)cnc32)cc1 [MF-DH-429],97,< 100
"O=C(O)c1ccc(-n2ccc3cc(C(=O)N4CCC(F)(F)CC4)cnc32)cn1 [MF-DH-434, 5-(5-(4,4-difluoropiperidine-1-carbonyl)-1H-pyrrolo[2,3-b]pyridin-1-yl)picolinic acid]",94,< 100
"CCC(CC)NC(=O)c1ccc(-n2ccc3cc(C(=O)N4CCC(F)(F)CC4)cnc32)cn1 [MF-DH-437, 5-(5-(4,4-difluoropiperidine-1-carbonyl)-1H-pyrrolo[2,3-b]pyridin-1-yl)-N-(pentan-3-yl) picolinamide]",25,< 100
"CC(C)(C)CNC(=O)c1ccc(-n2ccc3cc(C(=O)N4CCC(F)(F)CC4)cnc32)cn1 [MF-DH-438, 5-(5-(4,4-difluoropiperidine-1-carbonyl)-1H-pyrrolo[2,3-b]pyridin-1-yl)-N-neopentylpicolinamide]",63,< 100
"CC(C)(C)NC(=O)c1cncc(-n2ccc3cc(C(=O)N4CCC(F)(F)CC4)cnc32)c1 [MF-DH-448, N-(tert-butyl)-5-(5-(4,4-difluoropiperidine-1-carbonyl)-1H-pyrrolo[2,3-b]pyridin-1-yl)nicotinamide]",79,< 100
"O=C(c1cnc2c(ccn2-c2ccc(-c3nnn[nH]3)nc2)c1)N1CCC(F)(F)CC1 [MF-DH-452, (1-(6-(1H-tetrazol-5-yl)pyridin-3-yl)-1H-pyrrolo[2,3-b]pyridin-5-yl)(4,4-difluoropiperidin-1-yl)methanone]",90,< 100
"O=C1CCN(C(=O)c2ccc3c(c2)ncn3-c2cccc(Cl)c2)C1 [MF-PGDH-090, 1-(1-(3-chlorophenyl)-1H-benzo[d]imidazole-5-carbonyl)pyrrolidin-3-one]",–,≥ 1000
Cc1nc2cc(C(=O)N3CCCCC3)ccc2n1-c1cccc(Cl)c1 [MF-PGDH-091],–,< 100
O=C(c1ccc(COc2ccccc2-c2ccccn2)cc1)N1CCCCC1 [MF-PGDH-095],–,< 100
O=C(c1ccc(COc2ccccc2-c2cnc[nH]2)cc1)N1CCCCC1 [MF-PGDH-096],–,< 100
O=C(c1ccc(COc2ccccc2-c2cncs2)cc1)N1CCCCC1 [MF-PGDH-097],–,< 100
O=C(c1ccc2c(c1)ncn2-c1cccc(Cl)c1)N1CCC1 [MF-PGDH-104],–,100 to 1000
CC1(C)CN(C(=O)c2ccc3c(c2)ncn3-c2cccc(Cl)c2)C1 [MF-PGDH-105],–,100 to 1000
O=C(c1ccc2c(c1)ncn2-c1cccc(Cl)c1)N1CC(F)C1 [MF-PGDH-106],–,< 100
O=C(c1ccc2c(c1)ncn2-c1cccc(Cl)c1)N1CC(Cl)C1 [MF-PGDH-107],–,< 100

# Second part, the compound after the results:
MLM + NADPH (% remaining at 45 min) [1] [%],IC50 [2] [nM],Structure (SMILES)
81,< 100,O=C(NC1CCS(=O)(=O)CC1)c1cc(Cl)cc(-n2ccc3cc(C(=O)N4CCC(F)(F)CC4)cnc32)c1
37,< 100,O=C(c1cnc2c(ccn2-c2cc(Cl)cc(C(=O)N3CCS(=O)(=O)CC3)c2)c1)N1CCC(F)(F)CC1
41,< 100,NC(=O)c1ccc(-n2ccc3cc(C(=O)N4CCCCC4)cnc32)cn1 [MF-DH-365]
26,< 100,"NC(=O)c1ccc(-n2cc(Cl)c3cc(C(=O)N4CCC(F)CC4)cnc32)cc1 [MF-DH-382, 4-(3-chloro-5-(4-fluoropiperidine-1-carbonyl)-1H-pyrrolo[2,3-b]pyridin-1-yl)benzamide]"
12,< 100,"NC(=O)c1ccc(-n2cc(Cl)c3cc(C(=O)N4CCCCC4)cnc32)cc1 [MF-DH-383, 4-(3-chloro-5-(piperidine-1-carbonyl)-1H-pyrrolo[2,3-b]pyridin-1-yl)benzamide]"
72,< 100,"Cc1c(C(=O)N2CCC(F)CC2)cnc2c1ccn2-c1ccc(C#N)cc1 [MF-DH-387, 4-(5-(4-fluoropiperidine-1-carbonyl)-4-methyl-1H-pyrrolo[2,3-b]pyridin-1-yl)benzonitrile]"
4,< 100,O=C(c1cnc2c(ccn2-c2ccc3[nH]ncc3c2)c1)N1CCC(F)(F)CC1 [MF-DH-396]
6,< 100,N/C(=N\O)c1ccc(-n2ccc3cc(C(=O)N4CCCCC4)cnc32)cc1 [MF-DH-399]
0,< 100,N/C(=N\O)c1cccc(-n2ccc3cc(C(=O)N4CCCCC4)cnc32)c1 [MF-DH-400]
45,< 100,"CC(C)(C)C(=O)NCCNC(=O)c1ccc(-n2ccc3cc(C(=O)N4CCC(F)(F)CC4)cnc32)cc1 [MF-DH-403, 4-(5-(4,4-difluoropiperidine-1-carbonyl)-1H-pyrrolo[2,3-b]pyridin-1-yl)-N-(2-pivalamidoethyl)benzamide]"
86,< 100,"CC(C)(C)CNC(=O)c1cncc(-n2ccc3cc(C(=O)N4CCC(F)(F)CC4)cnc32)c1 [MF-DH-405, 5-(5-(4,4-difluoropiperidine-1-carbonyl)-1H-pyrrolo[2,3-b]pyridin-1-yl)-N-neopentylnicotinamide]"
66,< 100,"CC(C)(C)NC(=O)c1ccc(-n2ccc3cc(C(=O)N4CCC(F)(F)CC4)cnc32)cn1 [MF-DH-406, N-(tert-butyl)-5-(5-(4,4-difluoropiperidine-1-carbonyl)-1H-pyrrolo[2,3-b]pyridin-1-yl)picolinamide]"
51,< 100,"CCC(CC)NC(=O)c1cncc(-n2ccc3cc(C(=O)N4CCC(F)(F)CC4)cnc32)c1 [MF-DH-407, 5-(5-(4,4-difluoropiperidine-1-carbonyl)-1H-pyrrolo[2,3-b]pyridin-1-yl)-N-(pentan-3-yl)nicotinamide]"
78,< 100,"CS(=O)(=O)NCCNC(=O)c1ccc(-n2ccc3cc(C(=O)N4CCC(F)(F)CC4)cnc32)cc1 [MF-DH-409, 4-(5-(4,4-difluoropiperidine-1-carbonyl)-1H-pyrrolo[2,3-b]pyridin-1-yl)-N-(2-(methylsulfonamido)ethyl)benzamide]"
87,< 100,"NCCNC(=O)c1ccc(-n2ccc3cc(C(=O)N4CCC(F)(F)CC4)cnc32)cc1 [MF-DH-411, N-(2-aminoethyl)-4-(5-(4,4-difluoropiperidine-1-carbonyl)-1H-pyrrolo[2,3-b]pyridin-1-yl)benzamide]"
